PubChem BioAssay (NCI)
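Each compound was tested at five concentrations against cells in 96-well plates for 48 hours. TGI: concentration producing complete growth inhibition.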

Legend:
Assay in all cases: NCI tumour cell line growth inhibition, 48 h
[1] = tested on: SF-268 CNS
[2] = tested on: HCC-2998 colon
[3] = tested on: SK-MEL-2 melanoma
[4] = tested on: OVCAR-5 ovarian
[5] = tested on: KM20L2 colon
[6] = tested on: NCI-H522 lung
[7] = tested on: OVCAR-8 ovarian
[8] = tested on: HT29 colon
[9] = tested on: CAKI-1 renal
[10] = tested on: LXFL 529 NSCLC
[11] = tested on: DMS 273 small cell lung
[12] = tested on: DLD-1 colon
[13] = tested on: A498 renal
[14] = tested on: HOP-18 NSCLC
[15] = tested on: 786-0 renal
[16] = tested on: HOP-62 NSCLC
[17] = tested on: RXF 393 renal
[18] = tested on: TK-10 renal
[19] = tested on: A549 NSCLC
[20] = tested on: SK-OV-3 ovarian
[21] = tested on: OVCAR-4 ovarian
[22] = tested on: KM12 colon
[23] = tested on: SF-539 CNS
[24] = tested on: HCT-15 colon
[25] = tested on: LOX IMVI melanoma
[26] = tested on: SNB-75 CNS
[27] = tested on: SN12C renal
[28] = tested on: SW-620 colon
[29] = tested on: HL-60(TB) leukemia
[30] = tested on: K-562 leukemia
[31] = tested on: MALME-3M melanoma
[32] = tested on: M14 melanoma
[33] = tested on: CCRF-CEM leukemia
[34] = tested on: SR leukemia
[35] = tested on: M19-MEL melanoma
[36] = tested on: SNB-19 CNS
[37] = tested on: HCT-116 colon
[38] = tested on: HOP-92 NSCLC
[39] = tested on: NCI-H460 lung
[40] = tested on: ACHN renal
[41] = tested on: NCI-H226 lung
[42] = tested on: EKVX NSCLC
[43] = tested on: SK-MEL-28 melanoma
[44] = tested on: IGROV1 ovarian
[45] = tested on: SF-295 CNS
[46] = tested on: U251 CNS
[47] = tested on: UACC-62 melanoma
[48] = tested on: OVCAR-3 ovarian
[49] = tested on: UACC-257 melanoma
[50] = tested on: SK-MEL-5 melanoma
[51] = tested on: NCI-H23 lung
[52] = tested on: UO-31 renal
[53] = tested on: SNB-78 CNS
[54] = tested on: COLO 205 colon
[55] = tested on: MOLT-4 leukemia
[56] = tested on: RPMI-8226 leukemia
[57] = tested on: DMS 114 small cell lung

## Nc1nc[n+](Cc2ccccc2)c2ncn(Cc3ccccc3)c12
[1]
  TGI: > 100 µM
[2]
  TGI: 60.4 µM
[3]
  TGI: > 100 µM
[4]
  TGI: > 100 µM
[5]
  TGI: > 100 µM
[6]
  TGI: > 100 µM
[7]
  TGI: > 100 µM
[8]
  TGI: > 100 µM
[9]
  TGI: > 100 µM
[10]
  TGI: > 100 µM
[11]
  TGI: > 100 µM
[12]
  TGI: > 100 µM
[13]
  TGI: > 100 µM
[14]
  TGI: > 100 µM
[15]
  TGI: > 100 µM
[16]
  TGI: > 100 µM
[17]
  TGI: 71 µM
[18]
  TGI: > 100 µM
[19]
  TGI: > 100 µM
[20]
  TGI: > 100 µM
[21]
  TGI: > 100 µM
[22]
  TGI: > 100 µM
[23]
  TGI: > 100 µM
[24]
  TGI: > 100 µM
[25]
  TGI: > 100 µM
[26]
  TGI: > 100 µM
[27]
  TGI: > 100 µM
[28]
  TGI: > 100 µM
[29]
  TGI: > 100 µM
[30]
  TGI: > 100 µM
[31]
  TGI: > 100 µM
[32]
  TGI: 86.3 µM
[33]
  TGI: > 100 µM
[34]
  TGI: > 100 µM
[35]
  TGI: > 100 µM
[36]
  TGI: > 100 µM
[37]
  TGI: > 100 µM
[38]
  TGI: 96.6 µM
[39]
  TGI: > 100 µM
[40]
  TGI: > 100 µM
[41]
  TGI: > 100 µM
[42]
  TGI: > 100 µM
[43]
  TGI: > 100 µM
[44]
  TGI: > 100 µM
[45]
  TGI: > 100 µM
[46]
  TGI: > 100 µM
[47]
  TGI: > 100 µM
[48]
  TGI: > 100 µM
[49]
  TGI: > 100 µM
[50]
  TGI: > 100 µM
[51]
  TGI: > 100 µM
[52]
  TGI: > 100 µM
[53]
  TGI: > 100 µM
[54]
  TGI: 82.8 µM

## Cc1ccccc1NC(=O)c1cc2cc(N=Nc3ccccc3C(=O)O)ccc2oc1=O
[3]
  TGI: 47.7 µM
[5]
  TGI: 32.1 µM
[55]
  TGI: 83.5 µM
[6]
  TGI: 29.5 µM
[7]
  TGI: > 100 µM
[8]
  TGI: 38.3 µM
[11]
  TGI: 42.5 µM
[12]
  TGI: 54.3 µM
[14]
  TGI: 35.1 µM
[15]
  TGI: 69.6 µM
[16]
  TGI: 43.3 µM
[17]
  TGI: 33.9 µM
[18]
  TGI: > 100 µM
[19]
  TGI: > 100 µM
[20]
  TGI: 68.7 µM
[22]
  TGI: 27.8 µM
[23]
  TGI: 37.5 µM
[24]
  TGI: 36.7 µM
[25]
  TGI: 41.6 µM
[26]
  TGI: 35.6 µM
[27]
  TGI: 53.3 µM
[28]
  TGI: > 100 µM
[29]
  TGI: 55.6 µM
[30]
  TGI: 79.5 µM
[31]
  TGI: 25 µM
[32]
  TGI: 37.7 µM
[33]
  TGI: 80.4 µM
[35]
  TGI: 27.3 µM
[56]
  TGI: 60.2 µM
[57]
  TGI: 41.2 µM
[37]
  TGI: 57.9 µM
[39]
  TGI: 60 µM
[40]
  TGI: > 100 µM
[41]
  TGI: 44 µM
[42]
  TGI: > 100 µM
[43]
  TGI: 41.2 µM
[44]
  TGI: 65.2 µM
[45]
  TGI: 39.2 µM
[46]
  TGI: 51.5 µM
[47]
  TGI: 17.9 µM
[48]
  TGI: > 100 µM
[49]
  TGI: 24.1 µM
[50]
  TGI: 30.7 µM
[51]
  TGI: 12.2 µM
[52]
  TGI: 50.6 µM
[54]
  TGI: 27.8 µM

## CC[C@]1(O)CC2CN(CCCc3c([nH]c4ccccc34)[C@@](C(=O)OC)(c3cc4c(cc3OC)N(C)C3C45CCN4CC=C[C@](CC)(C45)C(OC(C)=O)[C@@]3(O)C(=O)OC)C2)C1 (stereo not given in full)
[1]
  TGI: > 3.13 µM
[2]
  TGI: 8.2 µM
[3]
  TGI: > 8.05 µM
[4]
  TGI: > 10 µM
[5]
  TGI: 1.05 µM
[55]
  TGI: > 10 µM
[6]
  TGI: 0.393 µM
[7]
  TGI: > 10 µM
[8]
  TGI: > 3.44 µM
[9]
  TGI: > 10 µM
[10]
  TGI: > 10 µM
[11]
  TGI: > 10 µM
[12]
  TGI: > 10 µM
[13]
  TGI: 4.54 µM
[14]
  TGI: 0.73 µM
[15]
  TGI: > 10 µM
[16]
  TGI: > 3.4 µM
[17]
  TGI: 4.41 µM
[18]
  TGI: > 10 µM
[19]
  TGI: > 10 µM
[20]
  TGI: > 7.95 µM
[21]
  TGI: > 10 µM
[22]
  TGI: > 10 µM
[23]
  TGI: 6.03 µM
[24]
  TGI: > 10 µM
[25]
  TGI: > 10 µM
[26]
  TGI: 5.7 µM
[27]
  TGI: > 10 µM
[28]
  TGI: > 10 µM
[29]
  TGI: > 5.65 µM
[30]
  TGI: > 10 µM
[31]
  TGI: > 3.16 µM
[32]
  TGI: 4.01 µM
[33]
  TGI: > 10 µM
[35]
  TGI: > 10 µM
[56]
  TGI: > 8.84 µM
[36]
  TGI: 9.83 µM
[37]
  TGI: > 10 µM
[38]
  TGI: > 10 µM
[39]
  TGI: > 10 µM
[40]
  TGI: > 10 µM
[41]
  TGI: > 3.01 µM
[42]
  TGI: > 8.04 µM
[43]
  TGI: > 10 µM
[44]
  TGI: > 10 µM
[45]
  TGI: > 2.13 µM
[46]
  TGI: > 10 µM
[47]
  TGI: > 10 µM
[48]
  TGI: > 2.12 µM
[49]
  TGI: > 10 µM
[50]
  TGI: > 6.15 µM
[51]
  TGI: 3.77 µM
[52]
  TGI: > 10 µM
[53]
  TGI: > 3.04 µM
[54]
  TGI: > 7.86 µM
